Assay results reported in PMC5118709, “Identification of Polo-like kinase 1 interaction inhibitors using a novel cell-based assay” (Scientific Reports, 2016).
Where “and” joins values, the source holds several entries; their conditions need not be identical. Identical values can stand only once. Where no end group is shown, it is not given here. [ ]: non-standard residue; d: D form. The star is where a group is joined. FITC = O=C1OC2(c3ccc(O)cc3Oc3cc(O)ccc32)c2ccc(NC(=S)*)cc21; pT = C[C@@H](OP(=O)(O)O)[C@H](N)C(=O)O

Assays:
CRAF-BRAF = target: T1, CRAF-BRAF (Homo sapiens, UniProt P04049+P15056); experiment: control BRET CRAF-BRAF (transient); type: cell-based; settings: for Primary screen CRAF-BRAF (transient) % Inihibition / Primary screen CRAF-BRAF (transient) % Quench RLuc: 10-25 μM; for Confirmation CRAF-BRAF (transient) % Inihibition / Confirmation CRAF-BRAF (transient) % Quench RLuc: confirmation screen
T1 construct: expressed in transfected cells; host or cells: HEK293T, transient transfection with PEI
Experimental: (§1) We used our cell-based assay to screen a library of 112 983 compounds available in-house at IRIC’s High-Throughput Screening (HTS) platform (see Materials & Methods). Compounds were tested on cells in 384-well plates at concentrations between 10 μM and 25 μM, depending on their concentration in the original stocks solutions. BRET readings were taken 2 hours after treatment. Results obtained show a tight, close to normal distribution centered around zero inhibition relative to DMSO-treated controls (Fig. 1D). Compounds inducing at least 30% BRET inhibition were selected. From these, auto-fluorescent compounds and those that induced more than 90% reduction in RLucII luminescence were removed, leaving 800 primary hits, that we then re-tested using the same assay. In parallel, we tested these compounds in a control BRET assay for an unrelated pair of interacting proteins (BRAF-CRAF[46]) to exclude false-positive compounds that could reduce the BRET signal by interfering with light or by modifying the activity of GFP or Luc.
(§2) For the confirmation screen, the same procedure as for the primary screen was followed, except that HEK293T cells were also seeded at 6.25 millions of cells per simple CellStack on day 1 for transient transfections. These cells were transfected on day 3 with Luc-Map (5 μg) and Plk1-GFP (25 μg) pIRESHyg3 plasmids using polyethylenimine (PEI). To identify false-positives compounds, Luc-CRAF (4 μg) and GFP-BRAF (20 μg) plasmids were also transfected with PEI following the published procedure.

HeLa cells [1] = experiment: mitotic index assay (phospho-Histone H3) in HeLa cells; type: cell-based; settings: for effect on mitotic index, purchased compounds: 10 μM
HeLa cells [2] = experiment: mitotic defect phenotypes by immunofluorescence; type: cell-based; settings: 10 μM, 7 h
Experimental: HeLa cells were treated with these compounds along with the known PBD inhibitors PPG, TQ, Poloxin and the KD inhibitor BI2536 as controls, and then stained against α-Tubulin, pericentrin (a centrosome marker) and DNA (Fig. 2D). In all cases, there was a marked increase in the frequency of disorganized spindles compared with DMSO-treated control cells. This is expected as Plk1 plays multiple roles in spindle assembly and maintenance. […] Cpd 69, an analog of compound 122, induced a similar phenotype at lower concentrations (data not shown). This phenotype was not seen after treatment with BI2536.
For the mitotic defect phenotypes, 25 200 HeLa cells were plated on poly-L-lysine coated round cover slips in 24-well plates. The day after, cells were treated for 7 hours, and then washed with PHEM buffer at 37 °C before fixation in PHEM buffer containing 4% formaldehyde for 20 minutes at 37 °C. Cells were washed three times with TBS-tween 0.1% and plate was kept overnight at 4 °C. Next steps were followed as previously described except that coverslips were incubated in a dark wet chamber with antibodies. Anti-pericentrin (diluted 1:1000; Abcam), anti-α-tubulin DM1A (diluted 1:500; Sigma-Aldrich), Alexa Fluor 488 anti-rabbit and Texas-Red anti-mouse (diluted 1:200; Invitrogen) were used. Coverslips were mounted on slide using Vectashield media containing DAPI (Vector Laboratories).
Images shown in Fig. 2D were acquired on an AxioImager microscope (Carl Zeiss) with a 100x oil objective (NA 1.4 DICIII) and an AxioCam HRM camera (Carl Zeiss) using AxioVision software (Carl Zeiss).

Plk1-Map interaction [3] = target: T2, Plk1-Map interaction (Homo sapiens, UniProt P53350); experiment: LUMIER co-immunoprecipitation assay Plk1-Map; settings: for Relative Luminescence Unit: mean divided by maximum mean of the compounds
Experimental: After cell lysis, GFP-Plk1 was immunoprecipitated and co-purified Map-Luc was measured by luminescence following addition of the luciferase substrate, coelenterazine.
Half a million stably transfected Map205-RLucII/GFP10-Plk1 cells in Tyrode solution were seeded per well in a 96-well plate and allowed to settle for 30 min at 37 °C. […] Plates were then centrifuged at 4 °C at 3000 rpm for 5 minutes to pellet cells. Cells were then lysed with the IP buffer (20 mM Tris pH 7.5, 150 mM NaCl, 2 mM EGTA, 0.5% NP-40, 1 mM DTT, PMSF, aprotinin and leupeptin) and incubated on ice for 20 minutes. Plates were centrifuged again at 4 °C at 3400 rpm for 10 minutes, and the soluble fraction was transferred into a new 96-well plate. Note that 10 μl of this fraction was transferred in white 96-well plates from which the luminescence was read as a measure of the input amount of cell lysate for the co-IP. GFP-Plk1 was immunoprecipitated by adding 0.35 μl of anti-GFP antibody (Invitrogen). Plates were sealed and incubated on a rotator at 4 °C for 30 minutes. Then, 4 μl of pre-washed protein A magnetic beads (Invitrogen) were added to each well. Plates were sealed and incubated at 4 °C for 1h30. The extracts + beads were then transferred in a 96-well PCR plates and beads were washed 3 times with the IP buffer using a magnetic 96-well rack. The fourth wash was done in Tyrode solution, then beads were re-suspended with it and transferred in a white 96-well plate. […] Tyrode was also added to the plates containing the input fraction, then Coelenterazine h was added to the wells, and enhanced luminescence was read as described above.

GST-PBD367-603 of Plk1 = GST-PBD367-603 of Plk1 (Homo sapiens, UniProt P53350); experiment: fluorescence polarization assay PBD-phosphopeptide; settings: 50 μM
Experimental: In this assay, an optimal phosphopeptide for PBD binding is coupled with a FITC fluorophore and its binding to purified recombinant PBD of Plk1 is monitored by the change in polarization of incident light.
The FP buffer was composed of 10 mM Tris pH 8.0, 50 mM NaCl, 1 mM EDTA, 20% glycerol and 0.1% NP-40. The peptide (final concentration 10 nM) was always added to the wells of non-binding, black, 384-well plates, 1 hour after the addition of the protein with the buffer (+/− treatment, 10% DMSO). […] EC65s were used to perform the competitive assays with the non-labeled peptides and with the inhibitors. FP Inhibition was calculated with the formula: 100 − [((mPsample − mPfree peptide)\(mPDMSO − mPfree peptide)) × 100]. […] (Map peptide), and corresponding non-labeled peptides are identical but without FITC in N-terminal. […] Inhibition curves were fitted with GraphPad (Prism software).

HEK293T cells = experiment: mitotic index assay (phospho-Histone H3) in HEK293T cells
Experimental: For the mitotic index assay, 4000 HeLa cells or 5000 HEK293T cells per well were seeded in a 96-well plate. The day after, cells were incubated for 7 hours with different compounds, and then fixed by adding formaldehyde (4% final concentration) directly to each well. Plates were incubated 20 minutes at 37 °C, and then wells were rinsed three times with TBS-Tween 0.1%. A 1 hour block with PHEM buffer (60 mM Pipes, 25 mM HEPES, 10 mM EGTA, 4 mM MgSO4, pH 6.9) containing 2% BSA and 0.1% triton was performed, before addition of the primary antibody to the wells. The anti-phospho-Histone H3 (Ser10) antibody (EMD Millipore) was diluted 1:300 in PHEM buffer containing 2% BSA and added to the wells for 2 hours at room temperature in the dark. […] Plates were incubated for 1h 30 at room temperature in the dark, and then wells were washed 3 times with TBS-Tween 0.1%. A solution of Mowiol containing DAPI was finally added to the wells. Plates were kept at 4 °C in the dark until imaging using the 20x objective on an Operetta system (Perkin Elmer inc.). The mitotic index, corresponding to the percentage of pHH3 positive cells relative to the total number of DAPI-stained cells detected was calculated by the Operetta using the Harmony 3.5 software. Experiments were done in triplicates.

Plk1-Map interaction [4] = target: T2, Plk1-Map interaction; experiment: BRET Plk1-Map, stable HEK293T Plk1-Luc/GFP-Map cell line; type: cell-based; set-up: cDNAs for the human full length Plk1; expressed in transfected cells; settings: for Primary screen Plk1-Map (stable) % Inihibition / Primary screen Plk1-Map (stable) % Quench RLuc: 10-25 μM, 2 h; for Confirmation Plk1-Map (stable) % Inihibition / Confirmation Plk1-Map (stable) % Quench RLuc: confirmation screen
From the text: To develop a cell-based assay for the identification of Plk1 interaction inhibitors, we used Bioluminescence Resonance Energy Transfer (BRET)[42][43]. The assay monitors the interaction in HEK293T cells between Plk1 and Map205, a protein that we previously identified as an interactor of Drosophila Polo (Plk1 ortholog) on its PBD[44]. Although no ortholog of Drosophila Map205 has been found in vertebrates, this protein robustly interacts with vertebrate Plk1. […] Importantly, crystallography with zebrafish Plk1 has recently shown that Map205 nevertheless docks in the canonical phosphopeptide binding site of the PBD, with the natural phospho-mimetic Glu314 residue (Fig. 1A)[45]. In our assay, human Plk1 and a fragment of Drosophila Map205 (Map205_254-416 = Map) are respectively fused to Renilla luciferase II (Luc) and GFP10 (GFP), giving rise to energy transfer when the proteins are in close proximity (Fig. 1B). […] All combinations of Plk1 and Map tagged with Luc and GFP were tested (Supplementary Fig. S1). The Plk1-Luc/GFP-Map combination was selected because it yielded the highest BRET dynamic window. We then generated clonal stable cell lines co-expressing these two fusion proteins. These cell lines behaved very similarly to each other in BRET, and we selected one line that gave a high and reproducible BRET signal, with a Z′ score of 0.78, indicative of a robust assay for the purpose of a chemical screen (Supplementary Fig. S1).
as §1
For BRET on transiently transfected cells, 48 hours after the transfection, medium was removed, cells were washed twice with PBS, and then Tyrode solution (140 mM NaCl, 2.7 mM KCl, 12 mM NaHCO3, 5.6 mM D-glucose, 0.49 mM MgCl2, 0.37 mM NaH2PO4, 25 mM HEPES, pH 7.4, where 1 mM CaCl2 was freshly added) was added to the cells. Total fluorescence was first measured using a FlexStation II microplate reader (Molecular Devices), where the GFP10 was excited at 400 nm and read at 510 nm. Then, cells were treated for 5 minutes with 2.5 μM coelenterazine 400a (Gold Technology) before reading BRET2 using the Mithras LB940 microplate reader (Berthold Technologies). BRET2 signal corresponds to the light emitted by the GFP10 acceptor constructs (515 nm ± 20 nm) divided by the light emitted by the RlucII donor constructs (400 nm ± 70 nm). Net BRET2 was calculated by subtracting the background BRET ratio of the RLucII plasmid alone from the BRET ratio obtained by the two BRET partners. The Net BRET2 was plotted according to the GFP10/RLucII ratio, which was obtained by dividing the total fluorescence by the RLucII emission.
For the high throughput chemical screen, cells were amplified and frozen as multiple 1 ml aliquots containing 25 millions of stable HEK293T Plk1-Luc/GFP-Map cells to ensure that cells at the same passage number are used during the screen. […] Five days later, cells were counted and re-suspended in Tyrode solution. […]

Plk1-Map interaction [5] = target: T2, Plk1-Map interaction; experiment: BRET Plk1-Map, transient Luc-Map/Plk1-GFP in HEK293T; type: cell-based; set-up: cDNAs for the human full length Plk1; expressed in transfected cells; settings: confirmation screen
Experimental: as §2

[6] = reaction with amino-protected amino acids (LC-MS); settings: room temperature
Experimental: Vinyl sulfones are reactive species that can alkylate substrates as a result of a nucleophilic attack on the distal carbon of the vinyl group. To evaluate the potential of Cpd 161 (vinyl sulfone) to react with proteins, we tested its reaction with nucleophilic amino acid side chains groups. […] To test whether Cpd 161 could react covalently with the PBD, we incubated them together and examined the molecular mass of the protein by SDS-PAGE (Fig. 7). […] Consistent with this idea, the extent of the shift depended on the concentration of Cpd 161 used (Fig. 7B) and also on the incubation time (Fig. 7C).
To a stirred solution of electrophile (0.02 mmol) and amino acid (1- 1.5eq) in DMF (0.3 ml) were added a few drops of a diluted aqueous solution of sodium bicarbonate. The reaction was monitored using an Agilent 6120 Quadrupole LC/MS system (Agilent Technologies). In all cases, the molecular ion of the product was observed.

mitosis = settings: cited from earlier work
[7] = target: T3, Human Plk1 full length protein (human, UniProt P53350 1-603); experiment: fluorescence polarisation; FITC-Map peptide with the PBD or full-length Plk1 (Supplementary Fig. S3); compounds tested up to 100 uM; settings: both partners purified
T3 construct: Polo-like kinase 1 (Plk1), human, full length protein; also called full-length Plk1; whole Plk1; source: bought: Abcam

human GST-PBD_(367-603) = target: T4, human GST-PBD_(367-603) (human, UniProt P53350 367-603); experiment: fluorescence polarisation; competition: FITC-phosphopeptide 10 nM and GST-PBD 367-603 at 38 nM (EC65), unlabeled phosphopeptide at increasing concentrations; FP buffer; settings: both partners purified
T4 construct: also called Polo-Box Domain of Plk1; source: bought: Sigma-Aldrich
T4 sequence (P53350 367-603): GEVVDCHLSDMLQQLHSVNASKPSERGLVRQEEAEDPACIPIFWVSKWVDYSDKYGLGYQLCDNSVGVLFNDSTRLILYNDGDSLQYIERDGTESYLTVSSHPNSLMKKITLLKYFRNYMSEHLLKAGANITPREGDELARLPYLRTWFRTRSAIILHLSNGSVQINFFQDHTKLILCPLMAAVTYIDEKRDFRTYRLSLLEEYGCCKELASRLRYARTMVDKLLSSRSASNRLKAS

T1 sequence (P04049 whole entry): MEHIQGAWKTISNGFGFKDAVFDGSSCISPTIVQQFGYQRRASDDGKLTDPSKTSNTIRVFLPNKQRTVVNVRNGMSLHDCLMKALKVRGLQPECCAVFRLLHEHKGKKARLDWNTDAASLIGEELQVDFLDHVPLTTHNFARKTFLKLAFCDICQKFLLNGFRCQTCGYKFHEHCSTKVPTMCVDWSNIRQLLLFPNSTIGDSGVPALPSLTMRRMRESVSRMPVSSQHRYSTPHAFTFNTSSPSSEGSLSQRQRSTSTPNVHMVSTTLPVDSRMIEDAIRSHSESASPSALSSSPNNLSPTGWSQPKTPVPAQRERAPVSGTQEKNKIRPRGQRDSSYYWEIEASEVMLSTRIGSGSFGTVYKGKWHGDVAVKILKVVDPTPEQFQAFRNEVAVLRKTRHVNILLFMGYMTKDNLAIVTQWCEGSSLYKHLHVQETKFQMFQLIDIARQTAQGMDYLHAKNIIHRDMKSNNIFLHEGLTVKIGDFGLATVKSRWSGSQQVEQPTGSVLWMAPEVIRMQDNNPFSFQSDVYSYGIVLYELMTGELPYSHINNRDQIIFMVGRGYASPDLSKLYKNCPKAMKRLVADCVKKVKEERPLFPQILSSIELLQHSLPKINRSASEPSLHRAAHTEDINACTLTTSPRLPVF
T1 sequence (P15056 whole entry): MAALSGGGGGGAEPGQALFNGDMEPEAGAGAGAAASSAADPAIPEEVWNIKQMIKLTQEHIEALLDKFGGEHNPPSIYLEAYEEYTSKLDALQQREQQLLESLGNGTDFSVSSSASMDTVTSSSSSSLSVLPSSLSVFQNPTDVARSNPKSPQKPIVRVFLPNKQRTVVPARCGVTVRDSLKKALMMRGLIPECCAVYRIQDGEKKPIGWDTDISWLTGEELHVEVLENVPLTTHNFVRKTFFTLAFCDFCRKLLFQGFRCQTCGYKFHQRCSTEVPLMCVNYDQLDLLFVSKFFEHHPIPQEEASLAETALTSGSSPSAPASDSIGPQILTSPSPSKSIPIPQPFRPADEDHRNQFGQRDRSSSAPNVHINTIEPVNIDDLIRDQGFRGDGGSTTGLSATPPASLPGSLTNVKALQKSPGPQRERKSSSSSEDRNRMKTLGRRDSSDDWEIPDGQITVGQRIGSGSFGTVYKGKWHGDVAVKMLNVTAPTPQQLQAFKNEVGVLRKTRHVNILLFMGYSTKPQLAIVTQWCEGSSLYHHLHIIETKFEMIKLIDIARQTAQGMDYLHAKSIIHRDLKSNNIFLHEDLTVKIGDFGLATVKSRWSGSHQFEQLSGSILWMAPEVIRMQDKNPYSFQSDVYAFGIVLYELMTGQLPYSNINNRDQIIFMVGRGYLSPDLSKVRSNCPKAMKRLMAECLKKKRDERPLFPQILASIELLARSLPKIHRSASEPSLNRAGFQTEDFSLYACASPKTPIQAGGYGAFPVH
T2 sequence (P53350 whole entry): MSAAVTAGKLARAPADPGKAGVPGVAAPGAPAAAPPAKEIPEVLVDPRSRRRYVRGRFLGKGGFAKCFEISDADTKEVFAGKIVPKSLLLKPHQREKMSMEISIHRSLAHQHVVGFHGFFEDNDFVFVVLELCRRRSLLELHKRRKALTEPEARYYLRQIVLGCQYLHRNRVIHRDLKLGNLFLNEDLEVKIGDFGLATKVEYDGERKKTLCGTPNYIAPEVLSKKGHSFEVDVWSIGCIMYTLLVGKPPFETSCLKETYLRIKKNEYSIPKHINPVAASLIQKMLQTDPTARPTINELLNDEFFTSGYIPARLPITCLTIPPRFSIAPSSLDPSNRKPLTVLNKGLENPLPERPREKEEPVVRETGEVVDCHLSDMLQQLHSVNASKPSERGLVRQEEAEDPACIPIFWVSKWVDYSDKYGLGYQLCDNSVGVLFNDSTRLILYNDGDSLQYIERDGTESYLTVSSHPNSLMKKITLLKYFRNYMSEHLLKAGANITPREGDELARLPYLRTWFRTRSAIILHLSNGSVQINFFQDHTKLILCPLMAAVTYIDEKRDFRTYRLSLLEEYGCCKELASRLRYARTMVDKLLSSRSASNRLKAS
Chain of GST-PBD367-603 of Plk1 (P53350 367-603): as the sequence (P53350 367-603) above
T3 sequence (P53350 whole entry): as the sequence (P53350 whole entry) above

Row | Primary screen CRAF-BRAF (transient) % Inihibition (CRAF-BRAF) [%] | Primary screen CRAF-BRAF (transient) % Quench RLuc (CRAF-BRAF) [%] | Confirmation CRAF-BRAF (transient) % Inihibition (CRAF-BRAF) [%] | Confirmation CRAF-BRAF (transient) % Quench RLuc (CRAF-BRAF) [%] | Average-Beads (mean luminescence) (Plk1-Map interaction [3]; 10-25 μM, 2 h) | Co-IP Values relative to top in plate column = 1 (Plk1-Map interaction [3]; 10-25 μM, 2 h) | effect on the Plk1-Map interaction in co-IP (Plk1-Map interaction [3]; 10-25 μM, 2 h) | Relative Luminescence Unit (Plk1-Map interaction [3]) | activity in the FP assay (GST-PBD367-603 of Plk1) | Primary screen Plk1-Map (stable) % Inihibition (Plk1-Map interaction [4]) [%] | Primary screen Plk1-Map (stable) % Quench RLuc (Plk1-Map interaction [4]) [%] | Confirmation Plk1-Map (stable) % Inihibition (Plk1-Map interaction [4]) [%] | Confirmation Plk1-Map (stable) % Quench RLuc (Plk1-Map interaction [4]) [%] | Confirmation Plk1-Map (transient) % Inihibition (Plk1-Map interaction [5]) [%] | Confirmation Plk1-Map (transient) % Quench RLuc (Plk1-Map interaction [5]) [%] | binding result (human GST-PBD_(367-603)) | Molecule | effect on mitotic index, purchased compounds (HeLa cells [1]) | 2 > pericentrin foci (percentage of cells) (HeLa cells [2]) [%] | Disorganized spindles (percentage of cells) (HeLa cells [2]) [%] | effect on mitotic index, purchased compounds (HEK293T cells; 10 μM) | further results
1 | 18.32 | 72.42 | 7.18 | 67.88 | 281,985 | 0.866 | no effect | 0.866 | little or no activity | 77.38 | 86.93 | 49.85 | 91.91 | -0.61 | 62.73 |  | COc1ccc(-c2oc3ccccc3c(=O)c2OS(=O)(=O)c2cc(OC)ccc2OC)cc1 [Cpd 69] | significant increase | 2 ± 2 | 100 ± 0 | significant increase | Mitotic index (%) (HeLa cells [1]; 10-25 μM, 7 h): 30.13%; Luminescence on beads, duplicate wells (Plk1-Map interaction [3]; raw data, 10-25 μM, 2 h): 232,744 and 331,226; effect on mitotic index, purchased compounds (HEK293T cells; 1 μM): small increase
2 | -8.30 | 44.16 | 3.03 | 35.15 | 1,018,574 | 0.776 | no effect | 0.776 | little or no activity | 44.05 | 86.60 | 30.57 | 79.14 | -1.93 | 25.69 |  | COc1ccc(-c2oc3ccccc3c(=O)c2OS(=O)(=O)c2cc(Cl)ccc2Cl)cc1 [Cpd 122] | significant increase | 65 ± 2 | 85 ± 5 | significant increase | 
3 |  |  |  |  |  |  |  |  |  |  |  |  |  |  |  |  | CC1=CC(=O)C(C(C)C)=CC1=O [TQ, Thymoquinone] |  | 33 ± 9 | 56 ± 8 |  | time to completion of reaction with amino-protected cysteine [6]: approximately 10 minutes; concentrations required to disrupt mitosis and induce apoptosis (mitosis): high micromolar concentrations
4 |  |  |  |  |  |  |  |  |  |  |  |  |  |  |  |  | {FITC}-GIAVPDEREFDIEADMRPHEL (small peptide derived from Drosophila Map205; also called small peptide derived from Map205 coupled to FITC; source: synthetic peptide (Bio Basic inc., >95% pure)) [FITC-GIAVPDEREFDIEADMRPHEL (Map peptide)] |  |  |  |  | binding result [7]: binds
5 |  |  |  |  |  |  |  |  |  |  |  |  |  |  |  | binds | {FITC}-GPMQS[pT]PLNG (also called FITC-phosphopeptide; source: synthetic peptide (Bio Basic inc., >95% pure)) [FITC-GPMQS{T}PLNG (FITC-labeled PBD-binding phosphopeptide)] |  |  |  |  | 
6 |  |  |  |  |  |  |  |  |  |  |  |  |  |  |  | binds | GPMQS[pT]PLNG (as m7 but without FITC in N-terminal; also called corresponding unlabeled phosphopeptide; equivalent unlabeled peptide; source: synthetic peptide (Bio Basic inc., >95% pure)) [unlabeled phosphopeptide GPMQS{T}PLNG] |  |  |  |  | 
